For assay [1], the system named is colonic microbiota (fecal inoculum of two healthy adults). The experiment in a line: Microbiome diversity, alpha and beta (second set). It counts as cell-based, human. The method, then:
(§1) In a second set of in vitro experiments, at the start of the short-term colonic incubations, the test ingredients were added to nutritional medium containing basal nutrients present in the colon (e.g. host-derived glycans such as mucin). Three doses were tested per product. The nutritional medium used for this particular project was again supplemented with NaCl, MgSO4, CaCl2, hemin and bile salts, and with carbon sources glucose, starch and cellobiose. A blank, containing the same nutritional medium as that used for the product incubations, but without product addition, was included for each donor. In doing so, an assessment can be made of the background activity of the bacterial community, which results from fermentation of compounds in the nutritional medium. As a source of the colonic microbiota a fecal inoculum of two healthy adults was added. Incubations were performed for 48 h at 37′C, under shaking (90 rpm) and anaerobic conditions and protected from light. […] For the second set of in vitro experiments, two techniques were combined according to Vandeputte et al.

The test system is the same in assay [2]. The experiment in a line: 16S-targeted Illumina sequencing with flow cytometry, taxa abundance (second set). The assay is classed as cell-based, human. Particulars: 24 h fermentation. The method, then: as §1

Structures can show the parent of a compound that is named as a salt.

Turning to `O=C(O)CCCC[C@@H]1SC[C@@H]2NC(=O)N[C@@H]21` [biotin, D-Biotin], the “alpha-diversity (Shannon diversity index)” value in assay [1] (0.2× dose, both donors) is given as “increases alpha-diversity”; in assay [1] (5× dose, donor D) it was “increases alpha-diversity”. In addition, the “beta-diversity (Bray-Curtis distance to control)” value (“beta-diversity” for short) is on record as “increases beta-diversity” in assay [1] (1× dose, both donors) and “increases beta-diversity” in assay [1] (5× dose, donor D). For the same molecule, the Erysipelotrichaceae relative abundance result in assay [2] (0.2× dose, donor C) is “increase Erysipelotrichaceae relative abundance”; in assay [2] (1× dose, donor C) it was “increase Erysipelotrichaceae relative abundance”. The Akkermansiaceae relative abundance entry in assay [2] (0.2× dose, donor D) is “increase Akkermansiaceae relative abundance”. The Bifidobacteriaceae relative abundance result is “increase Bifidobacteriaceae relative abundance” in assay [2] (0.2× dose, donor D); “increase Bifidobacteriaceae relative abundance” in assay [2] (1× dose, donor D); “increase Bifidobacteriaceae relative abundance” in assay [2] (5× dose, donor D). Moreover, the “Faecalibacterium prausnitzii relative abundance” value in assay [2] (0.2× dose, donor D) is given as “increase Faecalibacterium prausnitzii relative abundance”; in assay [2] (1× dose, donor D), “increase Faecalibacterium prausnitzii relative abundance”; in assay [2] (5× dose, donor D) it was “increase Faecalibacterium prausnitzii relative abundance”. Further, the Barnesiellaceae relative abundance result in assay [2] (1× dose, donor D) was “increase Barnesiellaceae relative abundance”.

Take `NC(=O)c1cccnc1` [niacinamide, Niacinamide]: the “beta-diversity” value in assay [1] (0.2× dose, donor D) is “increases beta-diversity”; in assay [1] (5× dose, donor D), “increases beta-diversity”. In assay [1] (1× dose, donor C), the “alpha-diversity (Shannon diversity index)” value is “increases alpha-diversity”. Further, the Akkermansiaceae relative abundance result in assay [2] (0.2× dose, donor C) is “increase Akkermansiaceae relative abundance”. Also, the Erysipelotrichaceae relative abundance result in assay [2] (1× dose, donor C) is listed as “increase Erysipelotrichaceae relative abundance”; in assay [2] (5× dose, donor C), “increase Erysipelotrichaceae relative abundance”.

On to `Cc1ncc(CO)c(CO)c1O.Cl` [pyridoxine, Pyridoxine Hydrochloride], for which the “beta-diversity” value in assay [1] (0.2× dose, donor D) is on record as “increases beta-diversity”. Also, the “beta-diversity” value in assay [1] (1× dose, donor D) is recorded as “increases beta-diversity”. In addition, in assay [1] (5× dose, donor D), the “alpha-diversity (Shannon diversity index)” value is reported as “increases alpha-diversity” and the “beta-diversity” value is reported as “increases beta-diversity”. Besides, in assay [2] (0.2× dose, donor D), the Akkermansiaceae relative abundance entry is “increase Akkermansiaceae relative abundance” and the “Faecalibacterium prausnitzii relative abundance” value is on record as “increase Faecalibacterium prausnitzii relative abundance”. Also, the Erysipelotrichaceae relative abundance result in assay [2] (1× dose, donor C) is on record as “increase Erysipelotrichaceae relative abundance”. Besides, in assay [2] (1× dose, donor D), the Akkermansiaceae relative abundance result is given as “increase Akkermansiaceae relative abundance”, the Bifidobacteriaceae relative abundance entry was “increase Bifidobacteriaceae relative abundance” and the “Faecalibacterium prausnitzii relative abundance” value is “increase Faecalibacterium prausnitzii relative abundance”. Further, the Prevotellaceae relative abundance entry in assay [2] (5× dose, donor C) is reported as “increase Prevotellaceae relative abundance”. Moreover, in assay [2] (5× dose, donor D), the Akkermansiaceae relative abundance result is “increase Akkermansiaceae relative abundance”, the Bifidobacteriaceae relative abundance entry is “increase Bifidobacteriaceae relative abundance”, the “Faecalibacterium prausnitzii relative abundance” value is reported as “increase Faecalibacterium prausnitzii relative abundance” and the Veillonellaceae relative abundance result is listed as “increase Veillonellaceae relative abundance”.

Regarding `Cc1ncc(C[n+]2csc(CCO)c2C)c(N)n1` [thiamine, Thiamine Hydrochloride], the “alpha-diversity (Shannon diversity index)” value is reported as “increases alpha-diversity” in assay [1] (0.2× dose, donor C) and “increases alpha-diversity” in assay [1] (1× dose, donor C). For the same molecule, the “beta-diversity” value in assay [1] (1× dose, donor C) is listed as “increases beta-diversity”; in assay [1] (5× dose, donor D), “increases beta-diversity”. In addition, in assay [2] (1× dose, donor C), the Akkermansiaceae relative abundance entry is on record as “increase Akkermansiaceae relative abundance”. Besides, the Erysipelotrichaceae relative abundance result in assay [2] (5× dose, donor C) is reported as “increase Erysipelotrichaceae relative abundance”.
